Data taken from patent publication US9216181B2 (Southwest Research Institute, priority 2011, dated 2015).
Where “and” joins values, the source holds several entries; their conditions need not be identical. Equal values may be shown once. Where a name gives a salt, the structure may show the parent alone. Read-outs that look alike come from different tables or passages of the source.

How the values were obtained:
[1] = tested on: BMP-2; test: BMP-2 fold change of JHU library compounds, confirmed by qPCR; assay type: cell-based, human; settings: JHU library compounds; non-treated = 1.00
Excerpt: To further verify the technique, a 2T3 mouse pre-osteoblast cell line derived from calvaria courtesy of Dr. Steve Harris, UTHSCSA, was utilized to visually screen the compounds of the BIOMOL library and JHU libraries, purchased from John Hopkins University including 2387 compounds (solution in wells). Specifically, Murine 2T3 were thawed from one frozen cryovial and re-seeded into two T-75 tissue culture flasks grown in Alpha MEM with 10% FBS, Glutamine, and Pen/Strip antibiotics. Cells were incubated in a humidified 37° C. under 5% CO2 for 48 hours or when cells reached 80% confluence. After reaching confluency, the 2T3 were trypsinized and resuspended in pre-warm growth media to a cell density of 5×10^4 cells/mL. Approximately 100 uL of cell suspension was seeded to a 96 well plate to give a final 5,000 cells per well. Plate was incubated overnight at 37° C. and spent media was aspirated and replace with 100 uL of growth media with 5-10 uM of presumptive drug compounds. A set of controls were untreated and treated with 10 uM of Lovastatin to be used as a visual reference morphological screening.
Human mesenchymal stem cells (LONZA, Catalog PT2501) were maintained in Mesenchymal stem cells basal media (MSCBM CAT#PT-3238). Early passage cells were plated in triplicate at 2×10^4 cells/cm^2 using six well tissue culture plates and grown in humidified 5% CO2 at 37° C. for 24 hours. Spent media was replaced by assay media of drugs to be tested in same media as above at 10 μM final concentration. Untreated cells were used as the control group. […] RNA concentration and integrity was assessed by absorbance 260/280 and electrophoresis in 1% Agarose with formaldehyde loading dye. For TaqMan gene expression, cDNA was synthesized from 2 μg of total RNA using the High Capacity cDNA Reverse Transcription Kit (Applied Biosystems, Cat. 4368814). The resulting cDNA were diluted 1:100 for TaqMan and amplified by real-time quantitative PCR. […] A cocktail of universal master mix (Applied Biosystems, 4369016) were prepared individually for both set of primers which contained Taq Polymerase, dNTPs, and buffer. Template cDNA's were added separately to respective individual wells in triplicate samples. The PCR were performed on StepOne Plus Real Time System instrument (Applied Biosystems). The amplification program consisted of 1 cycle of 95° C. with 10 minute hold (hot start) followed by 50 cycles of 95° C. with 15 second annealing hold and 1 minute 60° C. specified acquisition hold. […] Change in gene expression was determined by the expression ΔΔCt relative method.
Included in the tables is the target or common medical use for each compounds.

[2] = tested on: BMP-2; test: Real time PCR of BMP-2 gene expression in human MSC (Cells-to-Ct); assay type: cell-based; settings: BMP-2 mRNA, hMSC, 5-10 μM, 24 hours, vs untreated
Method: Early passage human mesenchymal stem cells (MSC) were thawed from one frozen cryo-vial and seeded into two T-75 tissue culture flasks and incubated at 37° C. for 48 hours in Alpha MEM with 10% FBS. After three days and one re-feeding, the cells were trypsinized and re-suspended in pre-warmed media at 5×10^4 cells/mL to provide 5,000 cells per well in a 96 well plate and incubated overnight at 37° C. in 5% CO2.
Each well was washed in cold PBS, lysed at room temperature for five minutes, and stop reagent added to each well to stop the lysis reaction. The final lysate was kept cold at 4° C. and used immediately as the RNA template for the reverse transcription cDNA synthesis following the TAQMAN GENE EXPRESSION CELLS TO CT KIT instructions.
The cDNA synthesis was prepared on a separate sterile 96-well PCR plate and performed on the Step One Plus Real Time PCR System instrument (Applied Biosystems) with the programming set at 37° C. for 60 minutes and an inactivation hold of 95° C. for five minutes. The final cDNA reaction was kept cold and used as the template for the TAQMAN GENE Real-Time PCR step following the recommended instructions for TAQMAN GENE EXPRESSION CELLS TO CT KIT assay. […] Template cDNA's were added separately to respective individual wells in replicate samples.
The PCR was performed on the STEPONEPLUS Real-Time System instrument (Applied Biosystems). The amplification program consisted of 1 cycle of 95° C. with 10 minute hold (hot start) and followed by 50 cycles of 95° C. with 15-second annealing hold and 1-minute 60° C. specified acquisition hold.

[3] = tested on: BMP2; test: Quantitative PCR (TaqMan, ΔΔCt) of BMP2 in human mesenchymal stem cells; assay type: cell-based; settings: BMP2 mRNA, hMSC, 10 μM, vs untreated, 18S reference; for fold induction at 10 µM: Homo sapiens, Mesenchymal stem cells, read-out: q-PCR Fold increase
Method: Human mesenchymal stem cells (LONZA, Catalog PT2501) were maintained in Mesenchymal stem cells basal media (MSCBM CAT#PT-3238). Early passage cells were plated in triplicate at 2×10^4 cells/cm^2 using six well tissue culture plates and grown in humidified 5% CO2 at 37° C. for 24 hours. Spent media was replaced by assay media of drugs to be tested in same media as above at 10 μM final concentration. Untreated cells were used as the control group. Total RNA were prepared using either TRI Reagent (Ambion, Cat. 9738), for subsequent TaqMan gene expression qPCR of BMP2. RNA concentration and integrity was assessed by absorbance 260/280 and electrophoresis in 1% Agarose with formaldehyde loading dye. For TaqMan gene expression, cDNA was synthesized from 2 μg of total RNA using the High Capacity cDNA Reverse Transcription Kit (Applied Biosystems, Cat. 4368814). The resulting cDNA were diluted 1:100 for TaqMan and amplified by real-time quantitative PCR. Gene-specific fluorescent labeled TaqMan primers for FAM-BMP2 (Applied Biosystems, Hs00154192.m1) and TaqMan reference VIC-18S ribosomal RNA (Applied Biosystems, 4310893E) were used to target gene of interest. A cocktail of universal master mix (Applied Biosystems, 4369016) were prepared individually for both set of primers which contained Taq Polymerase, dNTPs, and buffer. Template cDNA's were added separately to respective individual wells in triplicate samples. The PCR were performed on StepOne Plus Real Time System instrument (Applied Biosystems). The amplification program consisted of 1 cycle of 95° C. with 10 minute hold (hot start) followed by 50 cycles of 95° C. with 15 second annealing hold and 1 minute 60° C. specified acquisition hold. The Ct value of endogenous reference gene (i.e. 18 s) was used to control for input RNA and then used to normalize target gene (i.e. BMP2) tested from the same cDNA sample to calculate the Δ Ct, and then calibrated to an internal reference sample. Change in gene expression was determined by the expression ΔΔCt relative method.
18 compounds were confirmed positive by the more stringent qPCR techniques. […] Included in the tables is the target or common medical use for each compounds.

[4] = positive control compounds (Table 1)

Row | Compound | Fold change (BMP-2) [1] | also measured
1 | CC(=O)OCC(=O)[C@@]1(O)CC[C@H]2[C@@H]3C[C@H](C)C4=CC(=O)C=C[C@]4(C)[C@H]3[C@@H](O)C[C@@]21C [6alpha-METHYLPREDNISOLONE ACETATE] | 35.00 fold | –
2 | CC[C@@]1(O)C(=O)OCc2c1cc1n(c2=O)Cc2cc3cc(O)ccc3nc2-1 [10-hydroxy-camptothecin] | – | RT PCR Fold increase ([2]; BIOMOL library (Table 2)): 30.0 fold; q-PCR Fold increase ([3]; BIOMOL library (Table 2)): 3.9 fold
3 | Nc1c2ccccc2nc2ccccc12 [Aminacrine (9-Aminoacridine)] | 5762.00 fold | –
4 | COc1cc(NS(C)(=O)=O)ccc1Nc1c2ccccc2nc2ccccc12 [Amsacrine] | 85.00 fold | –
5 | COc1ccc(C[C@H]2NC[C@H](O)[C@H]2OC(C)=O)cc1 [Anisomycin] | 670.00 fold and 387.00 fold | –
6 | CN1CCc2cccc3c2[C@H]1Cc1ccc(O)c(O)c1-3 [Apomorphine r (−)] | – | RT PCR Fold increase ([2]; BIOMOL library (Table 2)): 4.6 fold; fold induction at 10 µM ([3]; BIOMOL library (Table 2)): 7.3
7 | CC(=O)OC[C@H]1O[C@@H]([S-])[C@H](OC(C)=O)[C@@H](OC(C)=O)[C@@H]1OC(C)=O.CCP(CC)CC.[Au+] [Auranofin] | – | RT PCR Fold increase ([2]; BIOMOL library (Table 2)): 309.8 fold; q-PCR Fold increase ([3]; BIOMOL library (Table 2)): 17.6 fold
8 | CC(C)C[C@H](NC(=O)[C@H](Cc1ccccc1)NC(=O)c1cnccn1)B(O)O [Bortezomib] | – | RT PCR Fold increase [2, 4]: 15.4 fold; fold induction at 10 µM [3, 4]: 2.4
9 | CC(=O)[O-].CC(=O)[O-].[Cd+2] [Cadmium Acetate] | 8.00 fold | –
10 | CC(C)(C)CC(C)(C)c1ccc(O)c(Cc2ccc(Cl)cc2Cl)c1 [Clofoctol] | 11.00 fold | –
11 | C[C@@H]1C[C@@H]([C@H](O)CC2CC(=O)NC(=O)C2)C(=O)[C@@H](C)C1 [Cycloheximide] | 34.00 fold | –
12 | Oc1ccc(CCN2CCC(Nc3nc4ccccc4n3Cc3ccc(F)cc3)CC2)cc1 [Desmethyl astemizole] | 75.00 fold | –
13 | COc1ccc(-c2cc(=O)c3c(O)cc(O[C@@H]4O[C@H](CO[C@@H]5O[C@@H](C)[C@H](O)[C@@H](O)[C@H]5O)[C@@H](O)[C@H](O)[C@H]4O)cc3o2)cc1O [Diosmin] | 9.00 fold | –
14 | CC[C@H]1CN2CCc3cc(OC)c(OC)cc3[C@@H]2C[C@@H]1C[C@H]1NCCc2cc(OC)c(OC)cc21 [Emetine] | 220.00 fold | –
15 | CC[C@@H](C(=O)[C@@H](C)[C@@H](O)[C@H](C)CCc1ccc(C)c(O)c1C(=O)[O-])[C@H]1O[C@](CC)([C@H]2CC[C@](O)(CC)[C@H](C)O2)C[C@@H]1C.[Na+] [Laslocid Sodium] | 4.00 fold | –
16 | O=[N+]([O-])c1ccc(O)c2ncccc12 [Nitroxoline (8-hydroxy 5-nitroquinoline)] | 18.00 fold | –
17 | O=P([O-])([O-])OC1C(OP(=O)([O-])[O-])C(OP(=O)([O-])[O-])C(OP(=O)([O-])[O-])C(OP(=O)([O-])[O-])C1OP(=O)([O-])[O-].[Na+].[Na+].[Na+].[Na+].[Na+].[Na+].[Na+].[Na+].[Na+].[Na+].[Na+].[Na+] (centres unmarked) [Phytic acid, dodecasodium salt hydrate] | 15.00 fold | –
18 | Cc1cc(/C=C/c2ccc3cc(N(C)C)ccc3[n+]2C)c(C)n1-c1ccccc1 [Pyrvinium pamoate] | 398.00 fold | –
19 | C=C(C)[C@H]1Cc2c(ccc3c2O[C@@H]2COc4cc(OC)c(OC)cc4[C@@H]2C3=O)O1 [ROTENONE] | 61.00 fold | –
20 | C[CH2][Hg][S]c1ccccc1C(=O)[O-].[Na+] [THIMEROSAL] | 23.00 fold | –
21 | CN(C)C(=S)SSC(=S)N(C)C [THIRAM] | 36.00 fold | –
22 | C=C(NC(=O)C(=C)NC(=O)c1csc(C2=N[C@@H]3c4csc(n4)[C@H]4NC(=O)c5csc(n5)[C@H]([C@](C)(O)[C@@H](C)O)NC(=O)[C@H]5CSC(=N5)/C(=C/C)NC(=O)[C@H]([C@@H](C)O)NC(=O)c5csc(n5)[C@]3(CC2)NC(=O)[C@H](C)NC(=O)C(=C)NC(=O)[C@H](C)NC(=O)[C@H]([C@@H](C)CC)N[C@@H]2C=Cc3c([C@H](C)O)cc(nc3[C@H]2O)C(=O)O[C@@H]4C)n1)C(N)=O [Thiostrepton] | 5.00 fold | –
23 | CC[C@@]1(O)C(=O)OCc2c1cc1n(c2=O)Cc2cc3c(CN(C)C)c(O)ccc3nc2-1 [Topotecan] | 365.00 fold | –
24 | CCC1=C[C@@H]2CN(C1)Cc1c([nH]c3ccccc13)[C@@](C(=O)OC)(c1cc3c(cc1OC)N(C)[C@H]1[C@@](O)(C(=O)OC)[C@H](OC(C)=O)[C@]4(CC)C=CCN5CC[C@]31[C@@H]54)C2 [Vinorelbine tartrate] | 803.00 fold | –
25 | Acriflavine hydrochloride | 1491.00 fold | –
26 | Brilliant Blue | 111.00 fold | –
27 | Proflavine hemisulfate salt hydrate | 177.00 fold | –
28 | Verteporfin | 6.00 fold | –
